The text below walks through data of patent publication US6458387B1, “Sustained release microspheres” (priority 1999, dated 2002).

The conditions of series [1]: HSA microspheres, carbonyl diimidazole coupling.
Description: Carbonyl diimidazole (100 mg, Sigma Chemical Co., St. Louis, Mo.) was added to a solution of 36 mg of the antiviral drug Virazole Registered TM (ICN Pharmaceuticals, Inc., Costa Mesa, Calif.) in 0.2 ml of dimethylformamide (DMF). The resulting mixture was allowed to stand at room temperature for four hours. To the mixture was added a mixture of 0.2 ml of human serum albumin (HSA) (25%, Armour Pharmaceutical Co., Collegeville, Pa.) and 0.4 ml of deionized water. The mixture was incubated for 30 minutes at room temperature, for 30 minutes at 37° C., and for 30 minutes at 58° C. and then cooled to room temperature. Particles were isolated by centrifugation, washed with deionized water three times and resuspended in 20 ml of water.
Series [2] can be described thus: In vitro release from leuprolide acetate/HSA microspheres (Example 5). The class given is physicochemical. As to conditions: leuprolide acetate/HSA/dextran sulfate/PEG/PVP microspheres. The protocol: A 0.010 mL aliquot of a solution of 10-100 mg/mL leuprolide acetate in water (LHRH, TAP Pharmaceuticals, Deerfield, Ill.) was added to 0.168 mL of a 2-10% (weight/volume) solution of dextran sulfate in water (average molecular weight 500 kDa), and the solution was thoroughly mixed. To the leuprolide/dextran solution was added a 0.856 niL aliquot of a solution containing 25% (weight/volume) polyethylene glycol, having an average molecular weight of 3.35 kDa (Spectrum, Gardena, Calif.), and 25% (weight/volume) polyvinylpyrrolidone, having an average molecular weight of 40 kDa, in an aqueous solution of 0.1M sodium acetate, pH 5.5. The resulting solution was thoroughly mixed and allowed to stand for up to 30 minutes. A 0.25 mL aliquot of a 20% (weight/volume) solution of human serum albumin (Sigma Chemical Co., St. Louis, Mo.) in water was then added to the solution. The final solution was thoroughly mixed and placed in a water bath at between 70° C. and 90° C. for a period of time between 30 minutes and 3 hours.
In vitro release of leuprolide acetate was measured by centrifugation of microspheres and resuspension in a phosphate buffered saline release medium.

Details of series [3]: species or system dogs. As to conditions: dog. The method, then:
The microspheres were formed and precipitated from solution. […] Estradiol was then loaded into human serum albumin microspheres at 3 different weight percent loadings. The estradiol was dissolved in ethyl alcohol and incubated in the presence of the albumin microspheres. […] The 10% by weight estradiol containing microspheres contained 1 mg of estradiol and 8.33 mg of Human Serum Albumin (HSA). The 49% by weight estradiol containing microspheres contained 8.15 mg of estradiol and 8.33 mg of HSA. The 77% by weight estradiol containing microspheres contained 27.68 mg of estradiol and 8.33 mg of HSA
The microspheres were injected into five dogs and the resulting serum concentrations were determined by radioimmuno assay for estradiol.

The conditions of series [4]: human serum albumin microspheres; 0.01M, 0.1M or 1M zinc sulfate.
Description: Nafarelin acetate (Roche Laboratories, Nutley, N.J.) was dissolved in deionized water to produce a 10 mg/ml solution.
To 1 mg of nafarelin acetate was added 10 mg of the human serum albumin microspheres. The mixture was vortexed and mixed for 16 hours at 4° C. A 3M ammonium sulfate solution was added to the mixture to a final concentration of 0.5M and vortexed and mixed for 15 minutes at ambient temperature.
The mixtures were centrifuged, supernatant decanted and pellet resuspended in deionized water three times to wash the microspheres.

As to `CO[C@H]1/C=C/O[C@@]2(C)Oc3c(C)c(O)c4c(O)c(c(/C=N/N5CCN(C)CC5)c(O)c4c3C2=O)NC(=O)/C(C)=C\C=C\[C@H](C)[C@H](O)[C@@H](C)[C@@H](O)[C@@H](C)[C@H](OC(C)=O)[C@@H]1C` [Rifampicin TM, 3-[4-methylpiperazinyliminomethyl] rifamycin], the “percentage of drug incorporated into the particles” value in series [1] is “greater than 6.8%”. The same measure, in the same setting: as for `NC(=O)c1ncn([C@@H]2O[C@H](CO)[C@@H](O)[C@H]2O)n1` [Virazole Registered TM], the figure is 10%. As to `CCCCCCCC(=O)O` [caprylic acid], the “effect of additive on release of protein and peptide from the microspheres” value in series [2] is listed as “retarded the release”. Consider `C[C@]12CC[C@@H]3c4ccc(O)cc4CC[C@H]3[C@@H]1CC[C@@H]2O` [estradiol control, estradiol], for which the “half life of estradiol in vivo” value in series [3] is on record as “shortest half life”. For `O=S(=O)([O-])[O-].[Zn+2]` [zinc sulfate], the “effect of additive on rate of release of nafarelin acetate” value in series [4] was “reduced the rate of release”. The “effect of additive on release of protein and peptide from the microspheres” value in series [2] is “retarded the release”.
